Measured values: patent US9334269B2, “Carboxamides as inhibitors of voltage-gated sodium channels” (AMGEN INC., priority 2010, dated 2016)

Target: T1, human Nav1.7 (hNav1.7) (Homo sapiens, UniProt Q15858)
T1 construct: expressed in transfected cells
Assay: hNav1.7 whole-cell patch-clamp electrophysiology (automated PatchXpress 7000A or manual) in stably expressing 293 cells
Assay type: cell-based
Conditions: average IC50, human Nav1.7
Procedure: Compounds were tested on human Nav1.7 (hNav1.7) expressed stably in 293 cells, which have no endogenous sodium channels. Two forms of whole-cell patch-clamp assays were used. In both, peak current through Nav1.7 was evoked by a depolarizing voltage pulse, and currents were monitored as a function of time in response to exposure to several different concentrations of drug. Automated electrophysiology uses the PatchXpress 7000A system. Up to sixteen cells at a time were voltage-clamped in parallel, and the steady-state voltage dependence of inactivation was determined experimentally for each cell. For each cell, fractional inactivation was set at 20%, and peak current through Nav1.7 as a function of time was measured in response to increasing concentrations of test compound. Manual electrophysiology refers to conventional whole-cell patch-clamping (Hamill et al., 1981). After formation of the whole-cell clamp, cells were lifted off the bottom of the dish with the patch pipette and positioned directly in front of an array of glass microperfusion tubes each with internal diameter about 250 microns, with individual compound concentrations flowing from each tube. Current as a function of time in response to increasing drug concentrations was measured with Nav1.7 fully in the resting state (holding voltage set to −140 mV) and on the same cells with the holding voltage set to produce about 20% inactivation. Compounds were not applied for a prespecified time, but for as long as required to achieve a stable level of block. For both forms of electrophysiology, offline analysis was used to correct for rundown of channel current and to determine percent inhibition as a function of drug concentration. IC50 were determined by fitting to the Hill equation.

T1 sequence (Q15858 whole entry): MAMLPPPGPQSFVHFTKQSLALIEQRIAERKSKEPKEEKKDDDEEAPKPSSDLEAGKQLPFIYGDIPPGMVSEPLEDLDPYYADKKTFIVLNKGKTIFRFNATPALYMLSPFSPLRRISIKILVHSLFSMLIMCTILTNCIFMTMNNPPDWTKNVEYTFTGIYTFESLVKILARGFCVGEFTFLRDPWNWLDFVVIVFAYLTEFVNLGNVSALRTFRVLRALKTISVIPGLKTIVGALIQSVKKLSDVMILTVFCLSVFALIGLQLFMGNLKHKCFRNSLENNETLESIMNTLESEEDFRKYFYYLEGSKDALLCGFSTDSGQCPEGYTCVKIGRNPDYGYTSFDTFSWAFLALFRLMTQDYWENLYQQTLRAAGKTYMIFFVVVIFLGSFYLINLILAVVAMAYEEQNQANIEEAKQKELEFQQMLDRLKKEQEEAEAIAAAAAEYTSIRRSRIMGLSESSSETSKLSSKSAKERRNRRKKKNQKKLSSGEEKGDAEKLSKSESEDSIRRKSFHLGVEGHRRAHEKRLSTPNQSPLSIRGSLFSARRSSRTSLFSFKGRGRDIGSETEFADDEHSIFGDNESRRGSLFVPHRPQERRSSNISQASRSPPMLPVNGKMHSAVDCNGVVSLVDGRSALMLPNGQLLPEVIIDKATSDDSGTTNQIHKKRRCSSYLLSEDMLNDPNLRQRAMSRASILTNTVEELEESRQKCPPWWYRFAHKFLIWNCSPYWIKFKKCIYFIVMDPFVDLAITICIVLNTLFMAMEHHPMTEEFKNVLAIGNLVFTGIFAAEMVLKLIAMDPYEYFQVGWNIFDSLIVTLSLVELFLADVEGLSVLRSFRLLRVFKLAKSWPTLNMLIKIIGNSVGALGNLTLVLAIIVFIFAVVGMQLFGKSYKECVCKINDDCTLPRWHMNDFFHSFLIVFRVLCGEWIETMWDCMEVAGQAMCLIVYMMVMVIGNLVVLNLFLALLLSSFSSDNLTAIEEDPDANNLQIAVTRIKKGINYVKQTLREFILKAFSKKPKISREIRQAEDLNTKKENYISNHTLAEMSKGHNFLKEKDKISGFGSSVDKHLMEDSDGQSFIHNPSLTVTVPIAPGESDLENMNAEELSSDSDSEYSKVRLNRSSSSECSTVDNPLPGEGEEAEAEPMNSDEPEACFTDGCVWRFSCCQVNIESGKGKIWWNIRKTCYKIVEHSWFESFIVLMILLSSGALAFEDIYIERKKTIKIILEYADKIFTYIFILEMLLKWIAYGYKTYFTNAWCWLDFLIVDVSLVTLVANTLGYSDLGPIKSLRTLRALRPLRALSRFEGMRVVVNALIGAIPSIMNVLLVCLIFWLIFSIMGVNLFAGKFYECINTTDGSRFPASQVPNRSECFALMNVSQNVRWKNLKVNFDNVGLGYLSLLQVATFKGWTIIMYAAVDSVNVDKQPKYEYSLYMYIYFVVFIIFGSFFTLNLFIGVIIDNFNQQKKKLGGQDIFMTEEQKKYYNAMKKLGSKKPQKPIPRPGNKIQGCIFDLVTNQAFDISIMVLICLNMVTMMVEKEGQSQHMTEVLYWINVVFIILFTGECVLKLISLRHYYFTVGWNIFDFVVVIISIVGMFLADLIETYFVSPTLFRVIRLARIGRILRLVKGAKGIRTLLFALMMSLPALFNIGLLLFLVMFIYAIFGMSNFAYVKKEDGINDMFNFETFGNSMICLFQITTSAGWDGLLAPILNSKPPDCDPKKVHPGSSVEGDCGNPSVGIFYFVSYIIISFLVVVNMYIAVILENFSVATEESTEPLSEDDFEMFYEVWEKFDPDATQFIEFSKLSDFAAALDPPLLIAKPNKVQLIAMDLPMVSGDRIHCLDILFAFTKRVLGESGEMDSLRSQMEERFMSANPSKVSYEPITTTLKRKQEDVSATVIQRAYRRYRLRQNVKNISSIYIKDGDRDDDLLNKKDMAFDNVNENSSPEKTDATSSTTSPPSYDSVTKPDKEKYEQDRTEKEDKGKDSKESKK

Row | SMILES | IC50 [µM]
1 | CNC(=O)c1cccc(Nc2ncnc(N3CCN(c4ccc(C(F)(F)F)cc4)CC3)n2)c1 [Example 74] | 0.96
2 | CNC(=O)c1cc(Nc2ncnc(NCCCOc3ccc(OC(F)(F)F)cc3)n2)ccc1Cl [Example 75] | 0.96
3 | CNC(=O)c1cccc(Nc2ncnc(N3CCN(c4cccc(C)n4)CC3)n2)c1 [Example 76] | 0.97
4 | CNC(=O)c1cccc(Nc2ncnc(N3CCc4cc(OCCC(F)(F)F)ccc4C3)n2)c1 [Example 77] | 0.98
5 | C#Cc1cccc(OC2CN(c3ncnc(Nc4cccc(C(=O)NC)c4)n3)C2)c1 [Example 78] | 0.99
6 | CNC(=O)c1cc(Nc2ncnc(N3CC(Oc4ccc(Cl)cc4F)C3)n2)ccc1Cl [Example 79] | 1
7 | CNC(=O)c1cccc(Nc2ncnc(N3CC(Oc4cccc(OC)c4)C3)n2)c1 [Example 80] | 1.03
8 | CNC(=O)c1cccc(Nc2ncnc(N3CCN(c4cccc(C)c4C)CC3)n2)c1 [Example 81] | 1.03
9 | CNC(=O)c1cccc(Nc2ncnc(N3CCN(c4ccc(OC(F)(F)F)cc4)CC3)n2)c1 [Example 82] | 1.06
10 | CNC(=O)c1cccc(Nc2ncnc(N3CC(Oc4ccc(SC(F)(F)F)cc4)C3)n2)c1 [Example 83] | 1.06
11 | CNC(=O)c1cccc(Nc2ncnc(N3CCC(Oc4ccc(Cl)c(F)c4)CC3)n2)c1 [Example 84] | 1.08
12 | CNC(=O)c1cccc(Nc2ncnc(N3CCC(Oc4ccccc4Cl)CC3)n2)c1 [Example 85] | 1.17
13 | CNC(=O)c1cccc(Nc2ncnc(N3CC(Oc4cccc(F)c4)C3)n2)c1 [Example 86] | 1.2
14 | CNC(=O)c1cccc(Nc2ncnc(N3CC(Oc4ccc(OC)cc4)C3)n2)c1 [Example 87] | 1.23
15 | CNC(=O)c1cccc(Nc2ncnc(N3CCC(C(=O)c4ccccc4)CC3)n2)c1 [Example 88] | 1.24
16 | CNC(=O)c1cccc(Nc2ncnc(N3CCN(c4ccccc4C)CC3)n2)c1 [Example 89] | 1.26
17 | CNC(=O)c1cc(Nc2ncnc(N3CC(COc4ccc(Cl)cc4)C3)n2)ccc1Cl [Example 90] | 1.26
18 | CNC(=O)c1cccc(Nc2ncnc(N3CC(COc4ccc(Cl)c(F)c4)C3)n2)c1 [Example 91] | 1.29
19 | CNC(=O)c1cccc(Nc2ncnc(N3CCc4cc(C5CC5)ccc4C3)n2)c1 [Example 92] | 1.29
20 | CNC(=O)c1cccc(Nc2ncnc(N3CCC(COc4ccc(F)c(F)c4)CC3)n2)c1 [Example 93] | 1.3
21 | CNC(=O)c1cccc(Nc2ncnc(N3CC(OCc4ccc(OC(F)(F)F)cc4)C3)n2)c1 [Example 94] | 1.32
22 | CNC(=O)c1cccc(Nc2ncnc(N3CCN(c4ccccc4F)CC3)n2)c1 [Example 95] | 1.35
23 | CNC(=O)c1cc(Nc2ncnc(N3CC(COc4ccc(C(F)(F)F)cc4)C3)n2)ccc1Cl [Example 96] | 1.39
24 | CNC(=O)c1cc(Nc2ncnc(N3CC(Oc4ccc(F)c(Cl)c4)C3)n2)ccc1Cl [Example 97] | 1.4
25 | CNC(=O)c1cc(F)cc(Nc2ncnc(N3CC(Oc4ccc(F)cc4)C3)n2)c1 [Example 98] | 1.41

Row | SMILES | IC50 [µM]
26 | CNC(=O)c1cccc(Nc2ncnc(N3CC=C(c4ccc(C#N)cc4)CC3)n2)c1 [Example 99] | 1.43
27 | CNC(=O)c1cccc(Nc2ncnc(N3CCC(Oc4ccc(OCC(F)(F)F)cc4)CC3)n2)c1 [Example 101] | 1.44
28 | CCNC(=O)c1cccc(Nc2ncnc(N3CC(Oc4ccc(F)cc4)C3)n2)c1 [Example 102] | 1.51
29 | CNC(=O)c1cc(F)cc(Nc2ncnc(N3CCC(c4nc(-c5ccccc5)cs4)CC3)n2)c1 [Example 103] | 1.56
30 | CNC(=O)c1cccc(Nc2ncnc(N3CC(Oc4cccc(Cl)c4Cl)C3)n2)c1 [Example 104] | 1.57
31 | CNC(=O)c1cccc(Nc2ncnc(N3CC(COc4ccc(Cl)cc4F)C3)n2)c1 [Example 105] | 1.58
32 | CNC(=O)c1cccc(Nc2nccc(N3CC(Oc4ccc(F)c(F)c4)C3)n2)c1 [Example 106] | 1.6
33 | CNC(=O)c1cccc(Nc2ncnc(N3CCCN(c4ncc(C(F)(F)F)cc4Cl)CC3)n2)c1 [Example 107] | 1.61
34 | CNC(=O)c1cccc(Nc2ncnc(N3CCN(c4ccc(Cl)cn4)CC3)n2)c1 [Example 108] | 1.61
35 | CNC(=O)c1cccc(Nc2ncnc(N3CCN(CCc4ccccc4)CC3)n2)c1 [Example 109] | 1.63
36 | CNC(=O)c1cccc(Nc2ncnc(N3CCc4cc(OC(F)(F)F)ccc4C3)n2)c1 [Example 110] | 1.67
37 | CNC(=O)c1cccc(Nc2ncnc(N3CC(Oc4cccc(OC(F)(F)F)c4)C3)n2)c1 [Example 111] | 1.69
38 | CNC(=O)c1cc(F)cc(Nc2ncnc(N3CC(COc4ccc(C(F)(F)F)cc4)C3)n2)c1 [Example 112] | 1.78
39 | CNC(=O)c1cccc(Nc2ncnc(N3CC(OCc4ccc(Cl)cc4)C3)n2)c1 [Example 113] | 1.82
40 | CNC(=O)c1cccc(Nc2ncnc(N3CCN(c4cccc(C)c4)CC3)n2)c1 [Example 114] | 1.83
41 | CNC(=O)c1cccc(Nc2ncnc(N3CCN(c4ccccc4)CC3)n2)c1 [Example 115] | 1.87
42 | CNC(=O)c1cc(F)cc(Nc2ncnc(N3CCN(c4cccc(C)n4)CC3)n2)c1 [Example 116] | 2
43 | CNC(=O)c1cccc(Nc2ncnc(N3CCC(c4ccc(C)c(C)c4)CC3)n2)c1 [Example 117] | 2
44 | CNC(=O)c1cccc(Nc2ncnc(N3CCC(Oc4ccc(C(F)(F)F)cc4)CC3)n2)c1 [Example 118] | 2.02
45 | CNC(=O)c1cccc(Nc2ncnc(N3CCC(Oc4cccc(OC(F)(F)F)c4)CC3)n2)c1 [Example 119] | 2.07
46 | CNC(=O)c1cccc(Nc2ncnc(N[C@H](C)CCc3ccccc3)n2)c1 [Example 120] | 2.09
47 | CNC(=O)c1cc(F)cc(Nc2ncnc(N3CC(Oc4ccc(F)c(Cl)c4)C3)n2)c1 [Example 121] | 2.09
48 | CNC(=O)c1cccc(Nc2ncnc(N3CCC(Oc4cccc(Cl)c4)CC3)n2)c1 [Example 122] | 2.1
49 | CNC(=O)c1cccc(Nc2ncnc(N3CCc4c(cccc4OC(F)(F)F)C3)n2)c1 [Example 123] | 2.13
50 | CNC(=O)c1cccc(Nc2ncnc(N3CCC(C#Cc4ccccc4)CC3)n2)c1 [Example 124] | 2.16

Row | SMILES | IC50 [µM]
51 | CNC(=O)c1cccc(Nc2nccc(N3CC(Oc4ccc(F)cc4F)C3)n2)c1 [Example 125] | 2.16
52 | CNC(=O)c1cccc(Nc2ncnc(N3CCN(S(=O)(=O)c4ccc(OC(F)(F)F)cc4)CC3)n2)c1 [Example 126] | 2.29
53 | CCn1c2c(c3ccccc31)CN(c1ncnc(Nc3cccc(C(=O)NC)c3)n1)CC2 [Example 127] | 2.31
54 | CNC(=O)c1cccc(Nc2ncnc(N3CC(Oc4ccc(C#N)c(Cl)c4)C3)n2)c1 [Example 128] | 2.31
55 | CNC(=O)c1ccc(Cl)c(Nc2ncnc(N3CC(Oc4ccc(F)cc4)C3)n2)c1 [Example 129] | 2.37
56 | CNC(=O)c1cccc(Nc2ncnc(N3CCc4cc(Cl)ccc4C3)n2)c1 [Example 130] | 2.44
57 | CNC(=O)c1cccc(Nc2ncnc(N3CCC(OCc4ccc(OC(F)(F)F)cc4)CC3)n2)c1 [Example 131] | 2.49
58 | CNC(=O)c1cccc(Nc2ncnc(N3CC(COc4ccc(Cl)cc4Cl)C3)n2)c1 [Example 132] | 2.55
59 | CNC(=O)c1cccc(Nc2ncnc(N3CC=C(c4ccc(C)c(C)c4)CC3)n2)c1 [Example 133] | 2.55
60 | CNC(=O)c1cccc(Nc2ncnc(N3CC(Oc4cccc(C(C)(C)C)c4)C3)n2)c1 [Example 134] | 2.58
61 | CNC(=O)c1cccc(Nc2ncnc(N3CCC(c4ccc(OC(F)(F)F)cc4)CC3)n2)c1 [Example 135] | 2.59
62 | CNC(=O)c1cccc(Nc2ncnc(N3CC=C(c4ccc(OC(F)(F)F)cc4)CC3)n2)c1 [Example 136] | 2.72
63 | CNC(=O)c1cccc(Nc2ncnc(N3CCc4c(cccc4OCC(F)(F)F)C3)n2)c1 [Example 137] | 2.73
64 | CNC(=O)c1cccc(Nc2ncnc(N3CCc4c(cccc4OC)C3)n2)c1 [Example 138] | 2.74
65 | CNC(=O)c1cccc(Nc2ncnc(N3CCC(n4cc(-c5ccccc5)cn4)CC3)n2)c1 [Example 139] | 2.74
66 | CNC(=O)c1cccc(Nc2ncnc(N3CCC(c4nc(-c5ccccc5)no4)CC3)n2)c1 [Example 140] | 2.79
67 | CNC(=O)c1cccc(Nc2ncnc(N3CC(Oc4ccccc4C(F)(F)F)C3)n2)c1 [Example 141] | 2.79
68 | CNC(=O)c1cccc(Nc2ncnc(N3CCc4c(Cl)cccc4C3)n2)c1 [Example 142] | 2.8
69 | CNC(=O)c1cccc(Nc2ncnc(N3CCC(COc4ccccc4)CC3)n2)c1 [Example 143] | 2.8
70 | CNC(=O)c1cccc(Nc2ncnc(N3CCc4c(cnn4-c4ccc(Cl)cc4)C3)n2)c1 [Example 144] | 2.87
71 | CNC(=O)c1cccc(Nc2ncnc(N3CCC(Oc4ccc(Cl)cc4)CC3)n2)c1 [Example 145] | 2.9
72 | CNC(=O)c1cc(F)cc(Nc2ncnc(N3CCC(Oc4ccc(OC(F)(F)F)cc4)CC3)n2)c1 [Example 146] | 2.91
73 | CNC(=O)c1cccc(Nc2ncnc(N3CCC(C#N)(c4ccc(Cl)cc4)CC3)n2)c1 [Example 147] | 2.92
74 | CNC(=O)c1cccc(Nc2ncnc(N3CC(Oc4ccc(F)cc4F)C3)n2)c1 [Example 148] | 2.95
